Data set [1] is described as follows: Recovery from human plasma/PBS 1:2 v/v. It counts as in vitro ADME. On the set-up: recovery compd. (%): dose or concentration left out as unconfirmed. The following applies: for recovery compd. (%): human plasma/PBS 1:2 v/v. As for the experimental part:
The proteolytic stabilities of 13 and 18 were investigated in human blood plasma/PBS (136.9 mM NaCl, 2.68 mM KCl, 5.62 mM Na2HPO4, 1.09 mM NaH2PO4, and 1.47 mM KH2PO4, pH 7.4) 1:2 v/v according to a described procedure[38] with the following modifications: 5 mM stock solutions in EtOH/10 mM aqueous HCl 1:1 v/v were used for the addition of the peptides to plasma/PBS 1:2 v/v. As the RP-HPLC purity of 1-methyl-D-Trp, used as internal standard (IS), was <95%, the compound was purified by preparative HPLC to give a purity of >99%. […] Samples were analyzed using the same RP-HPLC system and conditions as described under Analytical HPLC with the following gradient: 0–6 min: acetonitrile/0.04% aqueous TFA 10:90–21:79, 6–12 min: 21:79–40:60, 12–13 min: 40:60–95:5, 13–16 min: 95:5 (isocratic). Data analysis was based on UV detection at 220 nm. Reference samples, representing 100% recovery, were prepared in quadruplicate. Recovery ratios were obtained by dividing the recovery of the peptide by the recovery of IS for each individual sample (n = 4). The obtained recoveries and the recovery ratios are summarized in Table S2, Supporting Information.

In another data set the target is NTS1R (Homo sapiens, UniProt P30989). Put plainly: High-content imaging (HCI) association and dissociation kinetics, adherent CHO-hNTS1R cells. It counts as binding. The note with it: for koff: 23 °C, read-out: koff [min^–1] (converted); for kon: calculated from kobs, koff and ligand concentration, read-out: kon [min^–1 nM^–1] (converted). As for the experimental part: CHO-hNTS1R or HT-29 cells were seeded one day prior to the experiment into the inner 60 wells of a black clear-bottom 96-well plate (Greiner 655090, Greiner Bio-One) at a concentration of 25,000 cells/well and 35,000 cells/well, respectively. On the day of the assay, the medium was removed by suction and the cells were washed with DPBS1 (50 μL). After this step, DPBS1 (180 or 200 μL) containing the nuclear dye Hoechst H33342 (2 μg/mL) was added. This solution also contained the fluorescent ligand (kinetic studies, competition binding experiments), or the fluorescent ligand was added separately (saturation binding experiments). In the case of competition binding experiments, the nonlabeled receptor ligands were also added separately (details given below). All samples were incubated at 23 ± 1 °C in the dark under gentle shaking (incubation times are specified below). The final volume per well was 200 μL. Shortly before subjecting the plate to the plate reader for image acquisition, the liquid was removed by suction and DPBS1 (100 μL) was added. Images were acquired using an IX Micro plate reader (Molecular Devices, Sunnyvale, CA) using a 20× Plan Fluor ELWD objective, a xenon lamp light source and DAPI and TRITC excitation/emission filter cubes for imaging nuclear and fluorescent ligand staining, respectively. […] Two sites/well were measured throughout. Images were analyzed by granularity analysis (2–3 μm diameter granules; MetaXpress 5.3, Molecular Devices, San Diego, CA) and the integrated intensity (pixel intensity × granule area) per cell was used as the raw measurement of fluorescent ligand binding. […]
After the initial washing step, 200 μL of DPBS1 containing the fluorescent ligand 13 or 18 (2.5 nM) and DAPI were added to determine total binding. […] The samples of the different time points were prepared in reversed order (longest incubation time first, shortest incubation time last) so that the cells of all samples could be washed and measured approximately at the same time (note: the measurement time for 60 wells was <5 min). […] Specific binding data, obtained by subtracting triplicate mean values of unspecific binding from triplicate mean values of total binding, were plotted against the time and analyzed by a three-parameter equation describing an exponential rise to a maximum (one-phase association, Y0 constrained to zero, GraphPad Prism 5) to yield the observed association rate constant kobs. […]
After initial washing of the cells, 200 μL of DPBS1 containing the fluorescent ligand 13 or 18 (2.5 nM) and DAPI were added to the wells (determination of total binding). […] The plate was directly subjected to the plate reader (no washing step). […]

The values below come from publication PMC11440508, “Dually Labeled Neurotensin NTS1R Ligands for Probing Radiochemical and Fluorescence-Based Binding Assays” (Journal of Medicinal Chemistry, 2024).

Where “and” joins values, the source holds several entries; their conditions need not be identical. Equal entries are not always repeated.

Chain of NTS1R (P30989 whole entry): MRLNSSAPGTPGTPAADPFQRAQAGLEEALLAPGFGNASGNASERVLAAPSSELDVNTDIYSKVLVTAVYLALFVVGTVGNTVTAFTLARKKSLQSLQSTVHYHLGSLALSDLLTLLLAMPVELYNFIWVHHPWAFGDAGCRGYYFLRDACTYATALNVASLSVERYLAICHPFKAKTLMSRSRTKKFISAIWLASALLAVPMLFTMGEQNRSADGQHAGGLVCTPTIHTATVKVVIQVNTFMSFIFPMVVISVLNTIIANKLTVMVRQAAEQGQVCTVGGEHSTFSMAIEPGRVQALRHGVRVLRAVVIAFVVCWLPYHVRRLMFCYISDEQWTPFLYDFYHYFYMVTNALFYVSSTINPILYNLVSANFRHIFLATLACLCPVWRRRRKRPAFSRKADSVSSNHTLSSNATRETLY

In general, koff refers to the first-order rate constant of dissociation. By kon is commonly meant the second-order rate constant of association. Take `CCC(=O)NCCCCNC(=O)NC(=N)NCCC[C@H](NC(=O)[C@@H]1CCCN1C(=O)[C@@H](NC(=O)CCc1cn(CCCNC(=O)CCC#Cc2ccc3c(c2)C(C)(C)C2=C4C=C5C6=[N+](CCC5OC4CCN23)c2ccc(S(=O)(=O)[O-])cc2C6(C)C)nn1)C1CCNCC1)C(=O)N[C@@H](CCCNC(=N)N)C(=O)N1CCC[C@H]1C(=O)N[C@H](C(=O)N[C@H](C(=O)N[C@@H](CC(C)C)C(=O)O)[C@@H](C)CC)C(C)(C)c1ccc(O)cc1` (stereo partly drawn) [Compound 18, N^α-(3-(N-(1-(8-Sulfonato-5,5,27,27-tetramethyl-16-oxa-20-aza-12-azoniaheptacyclo[15.11.0.03,15.04,12.06,11.020,28.021,26]octacosa-1(28),2,4(12),6(11),7,9,21(26),22,24-nonaen-24-yl)-5-oxopentyn-5-yl)-1-aminoprop-3-yl-1H-1,2,3-triazol-4-yl)propanoyl)-2-(piperidin-4-yl)-Gly-Pro-N^ω-[(4-(N-propanoyl)aminobutyl)aminocarbonyl]Arg-Arg-Pro-β,β-dimethyl-L-Tyr-Ile-Leu Tris(hydrotrifluoroacetate)]: in data set [1] (four independent experiments), the “mean recovery ratio ± SEM” value amounted to 0.99 ± 0.02. The “recovery compd. (%)” value in data set [1] (individual experiments) was 98% and 72% and 65% and 70%. Besides, the “ratio of peptide recovery over recovery of internal standard” value in data set [1] (individual experiments, internal standard 1-methyl-D-tryptophan) was 1.01 (2×) and 1.03 and 0.91. At NTS1R, the dissociation rate constant (koff) is 0.00085 s⁻¹ and the kon is 135000 M⁻¹ s⁻¹.

For `CCC(=O)NCCCCNC(=O)N=C(N)NCCC[C@H](NC(=O)[C@@H]1CCCN1C(=O)[C@@H](NC(=O)CCc1cn(CCCNC(=O)c2ccc(-c3c4ccc(=[N+](C)C)cc-4oc4cc(N(C)C)ccc34)c(C(=O)[O-])c2)nn1)C1CCNCC1)C(=O)N[C@@H](CCCNC(=N)N)C(=O)N1CCC[C@H]1C(=O)N[C@@H](Cc1ccc(O)cc1)C(=O)N[C@H](C(=O)N[C@@H](CC(C)C)C(=O)O)[C@@H](C)CC` [Compound 13, N^α-(3-(1-N-((1-Carboxylato-2-(6-(dimethylamino)-3-(dimethyliminio)-3H-xanthen-9-yl)phen-5-yl)1-oxomethyl)aminoprop-3-yl-1H-1,2,3-triazol-4-yl)propanoyl)-2-(piperidin-4-yl)-Gly-Pro-N^ω-[(4-(N-propanoyl)aminobutyl)aminocarbonyl]Arg-Arg-Pro-Tyr-Ile-Leu Tris(hydrotrifluoroacetate)], in data set [1] (individual experiments), the “recovery compd. (%)” value was 75% and 102% and 104%. Moreover, at NTS1R, the koff is 0.000733 s⁻¹ and the kon was 267000 M⁻¹ s⁻¹.
